{"source": "PubChem BioAssay (NCI)", "assay_in_all_cases": "inhibition of tumour cell growth, NCI panel, 384-well format", "key": {"CAKI-1 renal": {"test_system": "CAKI-1 renal"}, "NCI-H23 lung": {"test_system": "NCI-H23 lung"}, "U251 glioblastoma": {"test_system": "U251 glioblastoma"}, "TK-10 renal": {"test_system": "TK-10 renal"}, "NCI-H322M lung": {"test_system": "NCI-H322M lung"}, "HT29 colon": {"test_system": "HT29 colon"}, "HCC-2998 colon": {"test_system": "HCC-2998 colon"}, "HS 578T breast": {"test_system": "HS 578T breast"}, "HCT-116 colon": {"test_system": "HCT-116 colon"}, "UACC-62 melanoma": {"test_system": "UACC-62 melanoma"}, "UO-31 renal": {"test_system": "UO-31 renal"}, "OVCAR-4 ovarian": {"test_system": "OVCAR-4 ovarian"}, "RPMI-8226 leukemia": {"test_system": "RPMI-8226 leukemia"}, "SF-539 CNS": {"test_system": "SF-539 CNS"}, "T-47D breast": {"test_system": "T-47D breast"}, "CCRF-CEM leukemia": {"test_system": "CCRF-CEM leukemia"}, "NCI-H522 lung": {"test_system": "NCI-H522 lung"}, "M14 melanoma": {"test_system": "M14 melanoma"}, "HOP-92 NSCLC": {"test_system": "HOP-92 NSCLC"}, "DU-145 prostate": {"test_system": "DU-145 prostate"}, "MOLT-4 leukemia": {"test_system": "MOLT-4 leukemia"}, "MALME-3M melanoma": {"test_system": "MALME-3M melanoma"}, "MDA-MB-231 breast": {"test_system": "MDA-MB-231 breast"}, "MCF7 breast": {"test_system": "MCF7 breast"}, "SNB-75 CNS": {"test_system": "SNB-75 CNS"}, "SW-620 colon": {"test_system": "SW-620 colon"}, "SK-OV-3 ovarian": {"test_system": "SK-OV-3 ovarian"}, "A549 NSCLC": {"test_system": "A549 NSCLC"}}, "note": "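At the GI50, growth is halved. TGI denotes the concentration required for complete inhibition of growth.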"}
{"smiles": "FC(F)(F)c1ccc(Nc2nc(-c3c(C(F)(F)F)nc4ccccn34)cs2)cc1", "values": [{"measurement": "GI50", "setting": "CAKI-1 renal", "value": 0.0264, "unit": "µM"}, {"measurement": "TGI", "setting": "CAKI-1 renal", "value": 1.85, "unit": "µM"}, {"measurement": "GI50", "setting": "NCI-H23 lung", "value": 0.0264, "unit": "µM"}, {"measurement": "TGI", "setting": "NCI-H23 lung", "value": 0.0896, "unit": "µM"}, {"measurement": "GI50", "setting": "U251 glioblastoma", "value": 0.0424, "unit": "µM"}, {"measurement": "TGI", "setting": "U251 glioblastoma", "value": 1.49, "unit": "µM"}, {"measurement": "GI50", "setting": "TK-10 renal", "value": 0.0693, "unit": "µM"}, {"measurement": "TGI", "setting": "TK-10 renal", "value": 5.31, "unit": "µM"}, {"measurement": "GI50", "setting": "NCI-H322M lung", "value": 0.0504, "unit": "µM"}, {"measurement": "TGI", "setting": "NCI-H322M lung", "value": 2.56, "unit": "µM"}, {"measurement": "GI50", "setting": "HT29 colon", "value": 0.0238, "unit": "µM"}, {"measurement": "TGI", "setting": "HT29 colon", "value": 0.0525, "unit": "µM"}, {"measurement": "GI50", "setting": "HCC-2998 colon", "value": 0.0321, "unit": "µM"}, {"measurement": "TGI", "setting": "HCC-2998 colon", "value": 0.375, "unit": "µM"}, {"measurement": "GI50", "setting": "HS 578T breast", "value": 0.0172, "unit": "µM"}, {"measurement": "TGI", "setting": "HS 578T breast", "value": 0.0375, "unit": "µM"}, {"measurement": "GI50", "setting": "HCT-116 colon", "value": 0.0328, "unit": "µM"}, {"measurement": "TGI", "setting": "HCT-116 colon", "value": 1.44, "unit": "µM"}, {"measurement": "GI50", "setting": "UACC-62 melanoma", "value": 0.0275, "unit": "µM"}, {"measurement": "TGI", "setting": "UACC-62 melanoma", "value": 1.59, "unit": "µM"}, {"measurement": "GI50", "setting": "UO-31 renal", "value": 0.0422, "unit": "µM"}, {"measurement": "TGI", "setting": "UO-31 renal", "value": 3.42, "unit": "µM"}, {"measurement": "GI50", "setting": "OVCAR-4 ovarian", "value": 1, "unit": "µM"}, {"measurement": "TGI", "setting": "OVCAR-4 ovarian", "value": 4.46, "unit": "µM"}, {"measurement": "GI50", "setting": "RPMI-8226 leukemia", "value": 0.0183, "unit": "µM"}, {"measurement": "TGI", "setting": "RPMI-8226 leukemia", "value": 0.0368, "unit": "µM"}, {"measurement": "GI50", "setting": "SF-539 CNS", "value": 0.0357, "unit": "µM"}, {"measurement": "TGI", "setting": "SF-539 CNS", "value": 0.179, "unit": "µM"}, {"measurement": "GI50", "setting": "T-47D breast", "value": 0.0289, "unit": "µM"}, {"measurement": "TGI", "setting": "T-47D breast", "value": 3.23, "unit": "µM"}, {"measurement": "GI50", "setting": "CCRF-CEM leukemia", "value": 0.0196, "unit": "µM"}, {"measurement": "TGI", "setting": "CCRF-CEM leukemia", "value": 0.0369, "unit": "µM"}, {"measurement": "GI50", "setting": "NCI-H522 lung", "value": 0.0167, "unit": "µM"}, {"measurement": "TGI", "setting": "NCI-H522 lung", "value": 0.0366, "unit": "µM"}, {"measurement": "GI50", "setting": "M14 melanoma", "value": 0.0252, "unit": "µM"}, {"measurement": "TGI", "setting": "M14 melanoma", "value": 0.0885, "unit": "µM"}, {"measurement": "GI50", "setting": "HOP-92 NSCLC", "value": 0.0411, "unit": "µM"}, {"measurement": "TGI", "setting": "HOP-92 NSCLC", "value": 2.97, "unit": "µM"}, {"measurement": "GI50", "setting": "DU-145 prostate", "value": 0.0328, "unit": "µM"}, {"measurement": "TGI", "setting": "DU-145 prostate", "value": 1.37, "unit": "µM"}, {"measurement": "GI50", "setting": "MOLT-4 leukemia", "value": 0.0189, "unit": "µM"}, {"measurement": "TGI", "setting": "MOLT-4 leukemia", "value": 0.0374, "unit": "µM"}, {"measurement": "GI50", "setting": "MALME-3M melanoma", "value": 0.032, "unit": "µM"}, {"measurement": "TGI", "setting": "MALME-3M melanoma", "value": 6.49, "unit": "µM"}, {"measurement": "GI50", "setting": "MDA-MB-231 breast", "value": 0.0524, "unit": "µM"}, {"measurement": "TGI", "setting": "MDA-MB-231 breast", "value": 4.69, "unit": "µM"}, {"measurement": "GI50", "setting": "MCF7 breast", "value": 0.0303, "unit": "µM"}, {"measurement": "TGI", "setting": "MCF7 breast", "value": 1.45, "unit": "µM"}, {"measurement": "GI50", "setting": "SNB-75 CNS", "value": 0.0221, "unit": "µM"}, {"measurement": "TGI", "setting": "SNB-75 CNS", "value": 0.0787, "unit": "µM"}, {"measurement": "GI50", "setting": "SW-620 colon", "value": 0.0339, "unit": "µM"}, {"measurement": "TGI", "setting": "SW-620 colon", "value": 2.6, "unit": "µM"}, {"measurement": "GI50", "setting": "SK-OV-3 ovarian", "value": 0.0348, "unit": "µM"}, {"measurement": "TGI", "setting": "SK-OV-3 ovarian", "value": 1.66, "unit": "µM"}, {"measurement": "GI50", "setting": "A549 NSCLC", "value": 0.0619, "unit": "µM"}]}
